The results in this text go back to PubChem BioAssay AID846 (PCMD, 2007).

Molecules are shown by their SMILES. Results filed as inconclusive are left out. Calls of active or inactive are those of the source. No rule for the calls is given here.

In this experiment the target is Coagulation factor XI (Homo sapiens) (UniProt P03951). Put plainly: FXIa inhibitor IC50 values, dose response, biochemical, hits from 1536-well screen (AID 846). The conditions noted are these: purified human plasma factor XIa, fluorogenic AMC substrate, 384-well, 2 h.
Sequence of Coagulation factor XI (Homo sapiens) (P03951 19-387 limits assumed): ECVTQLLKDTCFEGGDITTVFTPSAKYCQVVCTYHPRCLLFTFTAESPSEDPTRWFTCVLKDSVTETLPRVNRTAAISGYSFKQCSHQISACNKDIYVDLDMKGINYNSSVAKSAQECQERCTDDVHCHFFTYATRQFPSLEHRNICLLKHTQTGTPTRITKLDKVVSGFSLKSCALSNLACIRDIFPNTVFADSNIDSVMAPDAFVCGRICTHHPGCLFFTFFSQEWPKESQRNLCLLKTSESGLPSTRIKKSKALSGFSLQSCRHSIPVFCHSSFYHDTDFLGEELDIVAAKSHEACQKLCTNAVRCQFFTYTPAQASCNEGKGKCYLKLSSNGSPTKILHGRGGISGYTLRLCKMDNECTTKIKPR
Sequence of Coagulation factor XI (Homo sapiens) (P03951 388-625 limits assumed): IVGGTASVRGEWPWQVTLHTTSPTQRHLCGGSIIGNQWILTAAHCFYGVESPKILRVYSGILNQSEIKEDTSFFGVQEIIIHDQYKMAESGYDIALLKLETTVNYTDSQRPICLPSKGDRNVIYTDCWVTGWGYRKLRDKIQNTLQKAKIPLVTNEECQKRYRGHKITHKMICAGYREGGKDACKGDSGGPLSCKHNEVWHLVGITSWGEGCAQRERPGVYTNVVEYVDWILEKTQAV
Consider `Oc1ccc(/C=N/Nc2nc(-c3cccnc3)nc3ccccc23)c(O)c1`, for which the IC50 (as a rule, the point on the concentration scale where inhibition reaches its midpoint) was > 50 µM (inactive). For the compound `O=C1CC(N2CCC(c3nc4ccccc4o3)CC2)C(=O)N1c1ccc(Cl)c(C(F)(F)F)c1` (stereo not drawn), the IC50 was > 50 µM (inactive). Consider `C=CCOC(=O)C1=C(C)Nc2[nH]c(=O)[nH]c(=O)c2C1c1ccccc1` (stereo not drawn), for which the IC50 is > 50 µM (inactive).

As for `O=C1CC(Sc2ccc(Cl)cc2)C(=O)N1c1ccc2c(c1)OCCO2` (stereo not drawn), the IC50 was > 50 µM (inactive). Take `Cc1cccc(NC(=O)c2cc(N3C(=O)CCC3=O)ccc2Cl)n1`: the IC50 is > 50 µM (inactive).

On to `CCc1ccccc1N1C(=O)CC(=O)NC1=O`, for which the IC50 was > 50 µM (inactive). With `COc1cc(/C=N/Nc2cc(C)nc(NS(=O)(=O)c3ccccc3)n2)ccc1O`, the IC50 was > 50 µM (inactive).

Turning to `Brc1cccc(/C=N/Nc2nn[nH]n2)c1`, the IC50 is > 50 µM (inactive).
